# Measured values reported in US9157109B2, “Biosensors utilizing ink jet-printed biomolecule compatible sol gel inks and uses thereof” (McMaster University, priority 2009, dated 2015).
# Read-outs that look alike come from different tables or passages of the source.
# Experiments:
# β-Glucuronidase (GUS) = target: T1, β-Glucuronidase (GUS) (Escherichia coli, UniProt P05804); format: biochemical, E. coli
# T1 construct: purchased Sigma-Aldrich type VII-A (catalogue number not given)
# Method: For this, all of these substrates were dissolved separately with sodium phosphate buffer (75 mM, pH 8). […] 20 μL of GUS (final concentration of 1 U/mL) was then added into each well and incubated for 30 min to allow color development. The absorbance at 610, 400, and 380 nm was then measured using a TECAN M1000 plate reader. A digital camera was also used to take a photograph of the plate. […] (0-10 mM), and FeCl3 (2 mM) were entrapped on paper as described previous section (FIG. 13b). The sensor was then immersed into GUS solution (1 U/mL) and removed as soon as the Gus solution has reached the sensing region through FeCl3 zone followed by a certain incubation time (5, 30, and 60 min) at room temperature.
# Experiments were conducted firstly in 96-well plate, in which GUS (final concentration of 1 U/mL) was entrapped in silica gel. […] (4 mM) and oxidizing agents (1 mM each) were then added to each well (designated for the individual oxidizing agent), and incubated for 30 min. The concentration gradient (0-30 mM) of FeCl3 was also observed in 96-well plate. The absorbance at 610 was measured using a TECAN M1000 plate reader for each experiment. A digital camera was also used to take a photograph of the plate. […] (3 mM) were entrapped on paper using biocompatible silica material in order to make the sensor strips, as described in the previous section. The performance of the sensor was then assayed by dipping it into the GUS solution (1 U/mL) to allow the enzyme solution to reach the sensing zone through FeCl3 zone via lateral flow. The color development times tested were 5, 30, and 60 min.
# [1] = target: T2, acetylcholinesterase (AChE) (Electrophorus electricus, UniProt O42275); assay: biochemical; format: biochemical; parameters: purchased Sigma-Aldrich; conditions: for apparent saturated inhibition concentration / LOD: IPA lateral flow sensor; for detection limit (LOD): S/N=3, IPA lateral flow sensor
# Method: 20 μL of IPA (0˜5 mM) was then added into each well and incubated for 5 min to allow color development. The absorbance at 640 nm was then measured using a TECAN plate reader.
# The performance of the sensor under optimized conditions can be assessed in two ways: (1) directly (normal lateral flow-based chromatography) without incubating the contaminated sample, and (2) inverted lateral flow-based chromatography with incubation of the sample. For the latter case, after incubation 5 min at room temperature, the sensor was inverted again and immersed into dH2O for bringing up IPA by lateral flow action into sensing area of the strip above the liquid level.
# The sensor was then inverted again and immersed into dH2O to bring up IPA by lateral flow action into the sensing area of the strip above the liquid level. The color intensity was determined by analyzing a digital image with the ImageJ software as described above.
# [2] = target: T2, acetylcholinesterase (AChE); conditions: read-out: KM, literature value; cited from earlier work
# [3] = target: T2, acetylcholinesterase (AChE); format: biochemical; parameters: purchased Sigma-Aldrich
# [4] = target: T2, acetylcholinesterase (AChE); format: biochemical; parameters: purchased Sigma-Aldrich; remark: listed apart in the source
# [5] = target: T2, acetylcholinesterase (AChE); assay: Ellman colorimetric assay on ink jet printed PVAm/silica/AChE+DTNB/silica paper sensor
# Method: The performance can be assessed in two ways: a) by direct addition of substrate solution to sensing area, and b) by immersion into the substrate solution. […] However, in the case of direct analyte addition, only small amounts of reagent are needed (5 μL) relative to dipstick sensors (˜2 mL), reducing cost per assay. […] The color intensity of the sensing areas was quantified by obtaining a digital image (Canon A630, 8.0 MegaPixel operated in automatic mode with no flash and with the macroimaging setting on) and using ImageJ™ software to analyze the jpeg images. ImageJ™ software uses a […] color scale and for image processing the images were inverted so that areas that were originally white became black and corresponded to a color intensity of zero and while areas that were originally black became white and corresponded to […]. Based on this scale, increases in the amount of yellow color cause an increase in color intensity of the sensor strips. To account for variations in color intensity owing to differences in environmental illumination, a background subtraction (color intensity of the paper surface closest to the sensing area) was done for each data point.
# The intensity was determined by analyzing a digital image with the ImageJ software as described above.
# [6] = target: T2, acetylcholinesterase (AChE); format: biochemical; parameters: purchased Sigma-Aldrich; conditions: milk and apple juice samples (pH adjusted 7-8)
# T1 sequence (P05804 whole entry): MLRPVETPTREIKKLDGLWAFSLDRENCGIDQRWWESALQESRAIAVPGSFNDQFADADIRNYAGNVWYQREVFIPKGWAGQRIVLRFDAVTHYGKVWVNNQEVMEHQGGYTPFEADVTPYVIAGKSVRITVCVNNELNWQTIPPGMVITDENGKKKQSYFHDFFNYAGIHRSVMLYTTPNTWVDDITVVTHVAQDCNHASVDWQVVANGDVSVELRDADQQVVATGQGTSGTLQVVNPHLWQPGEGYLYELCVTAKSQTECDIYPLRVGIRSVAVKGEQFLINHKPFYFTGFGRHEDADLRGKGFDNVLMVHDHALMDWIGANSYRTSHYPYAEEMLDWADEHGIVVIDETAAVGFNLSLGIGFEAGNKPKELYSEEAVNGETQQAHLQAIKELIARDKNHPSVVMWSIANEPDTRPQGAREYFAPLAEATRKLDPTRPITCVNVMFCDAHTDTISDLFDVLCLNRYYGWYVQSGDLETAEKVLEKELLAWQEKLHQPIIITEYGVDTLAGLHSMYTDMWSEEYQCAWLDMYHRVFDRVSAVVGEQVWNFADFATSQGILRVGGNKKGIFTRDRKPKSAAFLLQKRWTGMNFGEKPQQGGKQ
# T2 sequence (O42275 24-633): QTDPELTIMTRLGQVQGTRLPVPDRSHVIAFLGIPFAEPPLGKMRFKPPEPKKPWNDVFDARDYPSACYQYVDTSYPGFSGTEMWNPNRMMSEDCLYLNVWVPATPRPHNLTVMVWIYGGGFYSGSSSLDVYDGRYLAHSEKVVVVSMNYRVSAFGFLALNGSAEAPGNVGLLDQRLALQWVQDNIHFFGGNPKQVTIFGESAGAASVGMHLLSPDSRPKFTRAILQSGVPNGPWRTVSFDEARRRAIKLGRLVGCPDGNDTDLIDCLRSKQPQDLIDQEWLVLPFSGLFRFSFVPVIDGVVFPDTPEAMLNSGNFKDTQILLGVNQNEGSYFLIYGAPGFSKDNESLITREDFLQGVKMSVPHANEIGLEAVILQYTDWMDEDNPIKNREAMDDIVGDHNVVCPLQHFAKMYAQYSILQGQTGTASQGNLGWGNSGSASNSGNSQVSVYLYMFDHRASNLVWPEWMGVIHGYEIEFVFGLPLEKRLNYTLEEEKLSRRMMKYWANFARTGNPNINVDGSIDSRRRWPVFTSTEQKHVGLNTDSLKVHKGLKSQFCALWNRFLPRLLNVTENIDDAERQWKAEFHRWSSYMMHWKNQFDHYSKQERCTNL
compound,measurement,setting,value
"N#CC1=C(C#N)C(=O)C(Cl)=C(Cl)C1=O [DDQ, 2,3-dichloro-5,6-dicyanobenzoquainone]",blue color development with oxidizing agent,β-Glucuronidase (GUS),poorest performance for blue color development
"O.O.O.O.O.O.[Cl-].[Cl-].[Cl-].[Fe+3] [FeCl3, FeCl3. 6H2O]",blue color development with oxidizing agent,β-Glucuronidase (GUS),strongest visual color intensity
"NC1CCCCC1.O=C(O)[C@H]1O[C@@H](Oc2c[nH]c3ccccc23)[C@H](O)[C@@H](O)[C@@H]1O [IBDG, indoxyl-β-D-glucuronide cyclohexylammonium salt]",visual color formation via GUS catalyzed hydrolysis,β-Glucuronidase (GUS),relatively faint color
"CC(=O)Oc1ccc(N=C2C=CC(=O)C=C2)cc1 [IPA, indophenyl acetate]",Km,[1],~1500 µM
same,Km,[2],~700 µM
"O=C(O)[C@H]1O[C@@H](Oc2ccc([N+](=O)[O-])cc2)[C@H](O)[C@@H](O)[C@@H]1O [PNPG, p-nitrophenyl-β-D-glucuronide]",visual color formation via GUS catalyzed hydrolysis,β-Glucuronidase (GUS); in solution for 30 min,relatively faint color
CNC(=O)Oc1cccc2c1OC(C)(C)O2 [bendiocarb],IC50,[1],20 nM
same,apparent saturated inhibition concentration,[1],around 1 μM
same,detection limit (LOD),[1],ca. 10 nM
CNC(=O)Oc1cccc2ccccc12 [carbaryl],IC50,[1],50 nM
same,apparent saturated inhibition concentration,[1],~5 µM
same,detection limit (LOD),[1],~100 nM
OCC(O)CO [glycerol],effect of additive on AChE activity in solution,[3],did not produce a decrease in AChE activity
CCOC(=O)CC(SP(=S)(OC)OC)C(=O)OCC (stereo not shown) [malathion],IC50,[1],~10 nM
same,LOD,[1],ca. 10 μM
CCOP(=O)(OCC)Oc1ccc([N+](=O)[O-])cc1 [paraoxon],inhibition of AChE,[4]; 1 mM paraoxon sprayed on apple and head lettuce,~50%
same,inhibition of AChE,[4]; 50 mM paraoxon sprayed on apple and head lettuce,almost complete inhibition
same,LOD,[1],ca. 10 μM
same,detection limit (LOD),"[5]; S/N=3, Ellman paper sensor",ca. 100 nM
same,inhibition of AChE,[5]; at 100 nM inhibitor,~25%
same,detection limit,[6],~10 nm
Triton X-100,effect of additive on AChE activity in solution,[3],No significant loss of AChE activity
aflatoxin B1 [AfB1],detection limit (LOD),[5],~30 nM
same,inhibition of AChE,[5]; 0.1 µM,~45%
same,IC50,[5]; read-out: IC50 for inhibition of AChE,~100 nM
